Source: patent publication US9993518B2, “Association of a tetrapeptide and a glyceryl ester for treating androgenic alopecia” (PIERRE FABRE DERMO-COSMETIQUE, priority 2014, dated 2018)

Tests used:
Assay type in all cases: cell-based
Conditions in all cases: human hair follicles, 6 h, Control RQ = 1, average of two donors
[1] = system: FZD1 gene; test: FZD1 gene expression in cultured human hair follicle bulbs, quantitative real-time PCR
Procedure: (§1) Hair follicle bulbs derived from plastic surgery waste (face lifts) from two donors were isolated by microdissection, cultured and treated for 6 hours with the active agents (acetyl tetrapeptide-3, glyceryl laurate, and the association thereof). RNA was extracted, assayed, reverse-transcribed and the expression of a panel of genes expressed in the pilosebaceous follicle was analyzed by quantitative real-time PCR.
(§2) The analysis of the results generated in this study led, for each condition applied and each gene of interest studied, to the calculation of a relative quantity (RQ). RQ corresponds to the expression level of a gene relative to its basal expression level (expression level obtained for the Control condition, the RQ of which is set to 1). Thus, the modulation of a gene's expression level is considered significant when: • the RQ is greater than or equal to 2: the gene is expressed two times more than in the Control condition • the RQ is less than or equal to 0.5: the gene is expressed two times less than in the Control condition.
(§3) The set of results presented below corresponds to the average results obtained for the two donors of the study.

[2] = system: SFRP1 gene; test: SFRP1 gene expression in cultured human hair follicle bulbs, quantitative real-time PCR
Procedure: as §1, §2, §3

[3] = system: KRT17 gene; test: KRT17 gene expression in cultured human hair follicle bulbs, quantitative real-time PCR
Procedure: as §1, §2, §3

[4] = system: KRT25 gene; test: KRT25 gene expression in cultured human hair follicle bulbs, quantitative real-time PCR
Procedure: as §1, §2, §3

[5] = system: KRT27 gene; test: KRT27 gene expression in cultured human hair follicle bulbs, quantitative real-time PCR
Procedure: as §1, §2, §3

[6] = system: KRT81 gene; test: KRT81 gene expression in cultured human hair follicle bulbs, quantitative real-time PCR
Procedure: as §1, §2, §3

Compound | RQ (relative quantity), expression level of the FZD1 gene ([1]; 10 μM) | RQ (relative quantity), expression level of the SFRP1 gene ([2]; 10 μM) | RQ (relative quantity), expression level of the KRT17 gene ([3]; 10 μM) | RQ (relative quantity), expression level of the KRT25 gene ([4]; 10 μM) | RQ (relative quantity), expression level of the KRT27 gene ([5]; 10 μM) | RQ (relative quantity), expression level of the KRT81 gene ([6]; 10 μM) | RQ (relative quantity), expression level of the FZD1 gene ([1]; 20 μM) | RQ (relative quantity), expression level of the SFRP1 gene ([2]; 20 μM) | RQ (relative quantity), expression level of the KRT17 gene ([3]; 20 μM) | RQ (relative quantity), expression level of the KRT25 gene ([4]; 20 μM) | RQ (relative quantity), expression level of the KRT27 gene ([5]; 20 μM) | RQ (relative quantity), expression level of the KRT81 gene ([6]; 20 μM)
CCCCCCCCCCCC(=O)OCC(O)CO (stereo not drawn) [GL, glyceryl laurate] | 1.3 | 0.9 | 1.1 | 1.3 | 1.3 | 1.8 |  |  |  |  |  | 
acetyl tetrapeptide-3 (Ac-KGHK-NH2) [ATP-3, CAS number 827306-88-7] |  |  |  |  |  |  | 1.2 | 1.3 | 0.8 | 1.7 | 1.4 | 1.5
